One assay has as its target T1, KRAS G12D/RAF1 (Homo sapiens, UniProt P01116, G12D).
T1 construct: KRAS (1-169) proteins were expressed in BL21 (DE3)-CodonPlus E. coli; His6-MBP (N, cleaved yes)
Briefly: Protein-protein interaction (PPI) HTRF assay KRAS G12D/RAF1. It counts as binding. The settings on record: Table 2. For orientation: Time-resolved FRET reads energy transfer from a long-lived donor to a nearby acceptor.

Another assay deals with T2, KRAS G12V/RAF1 (Homo sapiens, UniProt P01116, G12V).
T2 construct: KRAS (1-169) proteins were expressed in BL21 (DE3)-CodonPlus E. coli; His6-MBP (N, cleaved yes)
Briefly: Protein-protein interaction (PPI) HTRF assay KRAS G12V/RAF1. It counts as binding. As to conditions: Table 3. The protocol:
(§1) When RAS proteins are in the active GTP-bound conformation, they bind the effector protein RAF1 at the N-terminus Ras-binding domain (RBD, residues 52-131) (Tran, et al., 2021). Homogenous time resolved fluorescence (HTRF) was used to monitor the interaction between wt or mutant KRAS and RAF1 or wt NRAS and RAF1. Compounds were assayed in the presence of KRAS G12D/V and RAF1 versus wt KRAS to assess activity against mutant and w.t. KRAS. Similarly, compounds were then assayed in the presence of w.t. NRAS and RAF1 to assess RAS isoform selectivity. In all assay formats, His-tagged RAF1 protein was incubated with the HTRF donor, anti-6His Tb Cryptate gold (Cisbio 61DB10RDF), and biotinylated RAS proteins were incubated with the HTRF acceptor, streptavidin-d2 (CisBio 610SADLA). The intensity of the fluorescence signal emitted is proportional to binding between the two proteins. The donor solution was prepared by mixing 16 nM His-tagged RAF1 in protein dilution buffer with 1:100 anti-6His Tb cryptate in PPI-Terbium detection buffer. 16 nM biotinylated RAS protein was diluted into protein dilution buffer (50 mM Tris-HCl pH 7.5, 150 mM NaCl, 0.1 mM MgCl2, 1 mM TCEP, 0.005% Tween20) and mixed with 1:2000 Streptavidin-d2 diluted in PPI-Terbium detection buffer (CisBio 61DB10RDF). 50× compound in DMSO was mixed with 16 nM KRAS-acceptor solution and incubated for 30 minutes at room temperature. After compound pre-incubation with KRAS, the RAF1 donor solution was added to the KRAS-acceptor solution and incubated for 1 hour at room temperature. The fluorescence signal emitted was monitored at 665 nm and 615 nm using an Envision multimode plate reader. The HTRF ratio (665/615) was calculated and normalized to 0% inhibition in the absence of compound and 100% inhibition in the presence of untagged RAF1 protein. PPI KRAS G12D/RAF1, KRAS G12V/RAF1, w.t. KRAS/RAF1 and NRAS/RAF1 IC50 (uM) values of selected compounds are depicted in Table 3 and Table 4 with compounds having a value <0.1 uM as ++++; ≥0.1 uM to 1 uM as +++; ≥1 uM to 10 uM as ++; ≥10 uM to 100 uM as +; and ≥100 uM as NA.

In assay [1] the target is GST-tagged KRAS-G12D (2-169) (Homo sapiens, UniProt P01116, G12D). Put plainly: Nucleotide exchange assay (NEA), SOS-mediated, HTRF, KRAS G12D. In kind it is biochemical. As to conditions: IC50 extracted at 30 min, 20 nM SOScat. In a few lines:
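SOS1cat-driven loading of fluorescent GTP-DY-647P1 (150 nM) onto GST-KRAS-G12D (2-169, 0.25 nM) read by time-resolved FRET; SOScat 20 nM, compound preincubated with KRAS 1 h at RT. Signal blanked to no-SOS reactions, normalized to DMSO; IC50 fitted from the 30-min read.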

Assay [2] deals with GST-tagged KRAS-G12V (2-169) (Homo sapiens, UniProt P01116, G12V). Put plainly: Nucleotide exchange assay (NEA), SOS-mediated, HTRF, KRAS G12V. It counts as biochemical. The settings on record: Table 4; IC50 extracted at 90 min; 80 nM SOS. In a few lines: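 Exchange onto fluorescent GTP-DY-647P1 (150 nM final) catalysed by 80 nM SOS1cat was followed by Tb-anti-GST HTRF at RT for up to 90 min, after 1 h compound pre-incubation with 0.25 nM GST-tagged KRAS-G12V (2-169), pH 7.3. DMSO = 0%, no-SOS blank = 100%; 4-parameter IC50 taken at 90 min.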

The next assay has as its target T3, w.t. KRAS/RAF1 (Homo sapiens, UniProt P01116).
T3 construct: KRAS (1-169) proteins were expressed in BL21 (DE3)-CodonPlus E. coli; His6-MBP (N, cleaved yes)
Briefly: Protein-protein interaction (PPI) HTRF assay w.t. KRAS/RAF1. In kind it is binding. The settings on record: Table 3; wt KRAS/RAF1. On the procedure: as §1

Setting [3] is: Table 2, read-out: NEA-G12D (uM) IC50.
Where [4] appears, read: Table 4, read-out: NEA G12D IC50.

Each structure is given as a SMILES string. Read-outs that look alike come from different tables or passages of the source.

T3 sequence (P01116 with tags, fused parts or gaps isoform P01116-2): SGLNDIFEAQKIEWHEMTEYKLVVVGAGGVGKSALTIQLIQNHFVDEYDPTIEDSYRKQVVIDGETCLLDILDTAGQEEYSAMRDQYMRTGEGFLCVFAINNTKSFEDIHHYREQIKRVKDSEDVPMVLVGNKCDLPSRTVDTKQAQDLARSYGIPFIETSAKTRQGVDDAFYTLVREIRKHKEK
Sequence of GST-tagged KRAS-G12D (2-169) (P01116 2-169 isoform P01116-2 G12D): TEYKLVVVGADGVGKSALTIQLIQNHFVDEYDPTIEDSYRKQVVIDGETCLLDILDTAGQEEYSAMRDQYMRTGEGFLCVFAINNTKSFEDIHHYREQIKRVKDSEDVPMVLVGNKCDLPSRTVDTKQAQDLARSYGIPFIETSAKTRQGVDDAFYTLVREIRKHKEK
T2 sequence (P01116 with tags, fused parts or gaps isoform P01116-2 G12V): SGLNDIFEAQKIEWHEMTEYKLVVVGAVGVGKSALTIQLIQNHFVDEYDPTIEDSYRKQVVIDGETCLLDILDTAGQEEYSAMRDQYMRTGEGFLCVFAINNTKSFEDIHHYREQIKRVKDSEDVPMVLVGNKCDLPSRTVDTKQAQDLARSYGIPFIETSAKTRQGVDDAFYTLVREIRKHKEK
Sequence of GST-tagged KRAS-G12V (2-169) (P01116 2-169 isoform P01116-2 G12V): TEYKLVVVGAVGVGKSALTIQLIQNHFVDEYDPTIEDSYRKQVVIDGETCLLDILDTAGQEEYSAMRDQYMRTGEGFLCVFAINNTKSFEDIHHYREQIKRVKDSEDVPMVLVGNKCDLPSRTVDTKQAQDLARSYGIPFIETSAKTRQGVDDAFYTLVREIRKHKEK
T1 sequence (P01116 with tags, fused parts or gaps isoform P01116-2 G12D): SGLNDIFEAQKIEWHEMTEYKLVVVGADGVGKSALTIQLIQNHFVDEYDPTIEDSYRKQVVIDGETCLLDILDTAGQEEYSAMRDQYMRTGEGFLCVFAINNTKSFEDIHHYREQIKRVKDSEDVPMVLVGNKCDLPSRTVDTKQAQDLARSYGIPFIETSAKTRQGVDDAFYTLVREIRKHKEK

What is called IC50 is the concentration that gives 50% inhibition. Regarding `C[C@@]1(O)CCCN(c2nc(OC[C@@]34CCCN3C[C@H](F)C4)nc(N3CC4(CCc5sc(N)c(C#N)c54)C3)n2)C1` [Compound 10, 2-amino-1′-[4-[[(2R,8S)-2-fluoro-1,2,3,5,6,7-hexahydropyrrolizin-8-yl]methoxy]-6-[(3R)-3-hydroxy-3-methyl-1-piperidyl]-1,3,5-triazin-2-yl]spiro[5,6-dihydrocyclopenta[b]thiophene-4,3′-azetidine]-3-carbonitrile], the IC50 against KRAS G12D/RAF1 was 1 to 10 µM; at KRAS G12V/RAF1, 1 to 10 µM; in assay [1] (setting [3]), under 0.01 µM; in assay [1] (setting [4]), under 0.01 µM; in assay [2], under 10 nM; at w.t. KRAS/RAF1 it was 1 to 10 µM.

As for `N#Cc1c(N)sc2c1C1(CC2)CN(c2nc(OCC34CCCN3CC(F)C4)nc(N3CC4CCC(C3)N4)n2)C1` [Compound 1, 2-amino-1′-[4-(3,8-diazabicyclo[3.2.1]octan-3-yl)-6-[[(2R,8S)-2-fluoro-1,2,3,5,6,7-hexahydropyrrolizin-8-yl]methoxy]-1,3,5-triazin-2-yl]spiro[5,6-dihydrocyclopenta[b]thiophene-4,3′-azetidine]-3-carbonitrile], the IC50 against KRAS G12D/RAF1 is 0.1 to 1 µM; against KRAS G12V/RAF1, 0.1 to 1 µM; in assay [1] (setting [3]) it was under 0.01 µM; in assay [1] (setting [4]), under 0.01 µM; in assay [2], 10 to 100 nM; against w.t. KRAS/RAF1, 1 to 10 µM.

Consider `N#Cc1c(N)sc2c1C1(CC2)CN(c2nc(OC[C@@]34CCCN3C[C@H](F)C4)nc(N3CCCC(C#N)C3)n2)C1` (stereo partly drawn) [Compound 13, 2-amino-1′-[4-(3-cyano-1-piperidyl)-6-[[(2R,8S)-2-fluoro-1,2,3,5,6,7-hexahydropyrrolizin-8-yl]methoxy]-1,3,5-triazin-2-yl]spiro[5,6-dihydrocyclopenta[b]thiophene-4,3′-azetidine]-3-carbonitrile], for which the IC50 was 1 to 10 µM on KRAS G12D/RAF1; 1 to 10 µM against KRAS G12V/RAF1; 0.01 to 0.1 µM in assay [1] (setting [3]); 0.01 to 0.1 µM in assay [1] (setting [4]); 10 to 100 nM in assay [2]; 1 to 10 µM against w.t. KRAS/RAF1.

As for `N#Cc1c(N)sc2c1C1(CC2)CN(c2nc(OCC3(CN4CCOCC4)CC3)nc(N3C[C@H]4CC[C@@H](C3)N4)n2)C1` [Compound 2, 2-amino-1′-[4-[[1-(morpholinomethyl)cyclopropyl]methoxy]-6-[(1R,5S)-3,8-diazabicyclo[3.2.1]octan-3-yl]-1,3,5-triazin-2-yl]spiro[5,6-dihydrocyclopenta[b]thiophene-4,3′-azetidine]-3-carbonitrile], the IC50 is 1 to 10 µM against KRAS G12D/RAF1; 1 to 10 µM against KRAS G12V/RAF1; under 0.01 µM in assay [1] (setting [3]); under 0.01 µM in assay [1] (setting [4]); 100 to 1000 nM in assay [2]; 1 to 10 µM at w.t. KRAS/RAF1.

As for `N#Cc1c(N)sc2c1C1(CC2)CN(c2nc(OCC3(CN4CCOCC4)CC3)nc(N3CCCC4(C3)NC(=O)NC4=O)n2)C1` (stereo not drawn) [Compound 7, 2-amino-1′-[4-(2,4-dioxo-1,3,9-triazaspiro[4.5]decan-9-yl)-6-[[1-(morpholinomethyl)cyclopropyl]methoxy]-1,3,5-triazin-2-yl]spiro[5,6-dihydrocyclopenta[b]thiophene-4,3′-azetidine]-3-carbonitrile], the IC50 is 0.1 to 1 µM at KRAS G12D/RAF1; 0.1 to 1 µM against KRAS G12V/RAF1; under 0.01 µM in assay [1] (setting [3]); under 0.01 µM in assay [1] (setting [4]); under 10 nM in assay [2]; 0.1 to 1 µM on w.t. KRAS/RAF1.

Consider `N#Cc1c(N)sc2c1C1(CCC2)CN(c2nc(OCC3(CN4CCOCC4)CC3)nc(N3C[C@H]4CC[C@@H](C3)N4)n2)C1` [Compound 3, 2-amino-1′-[4-[(1R,5S)-3,8-diazabicyclo[3.2.1]octan-3-yl]-6-[[1-(morpholinomethyl)cyclopropyl]methoxy]-1,3,5-triazin-2-yl]spiro[6,7-dihydro-5H-benzothiophene-4,3′-azetidine]-3-carbonitrile], for which the IC50 against KRAS G12D/RAF1 was 1 to 10 µM; against KRAS G12V/RAF1, 10 to 100 µM; in assay [1] (setting [3]) it was under 0.01 µM; in assay [1] (setting [4]), under 0.01 µM; in assay [2], 100 to 1000 nM; at w.t. KRAS/RAF1 it was 1 to 10 µM.

The values are drawn from patent US12421254B2, “KRAS modulators and uses thereof” (Quanta Therapeutics, Inc., priority 2023, dated 2025).
